For data set [1] the following is noted: 11-membered ring.
For the next data set, the target named is MCL-1 (Homo sapiens, UniProt Q07820). The experiment in a line: Protein-protein interaction assay MCL-1/Noxa BH3 peptide (MCL-1 assay), TR-FRET. Type of data set: binding. To be noted: MBP-MCL-1 / Noxa BH3-derived peptide, median. In short, it runs like this:
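MBP-MCL-1 (1 nM final) was preincubated 10 min at 22 °C with compounds (11 concentrations, 0.1 nM–20 μM, duplicates) in Tris pH 7 buffer with NaCl, KF, Tween-20, DTT and BGG. After 1 h at 22 °C in the dark plus overnight at 4 °C, anti-MBP Eu-cryptate/streptavidin-XL665 TR-FRET was read; IC50 came from a 4-parameter fit.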
(In general: In TR-FRET formats the signal depends on donor and acceptor labels being close together.)

For data set [2], the target named is SUDHL5. The data set can be described thus: Induction of caspase-3/7 activity (Caspase-Glo 3/7), SUDHL5. The format is cell-based. The settings on record: caspase-3/7 induction, SUDHL5 cells, 3 h treatment; median. In a few lines:
(§1)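 Caspase-Glo 3/7 luminescence measured after 3 h compound exposure at 37 °C in SUDHL10 and SUDHL5 cells. EC50 values come from background-corrected signals, with curve bottom set to 1 and plateau set to maximal induction by the reference compound.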

The target in data set [3] is SUDHL10. The experiment in a line: Induction of caspase-3/7 activity (Caspase-Glo 3/7), SUDHL10. The format is cell-based. The settings on record: caspase-3/7 induction, SUDHL10 cells, 3 h treatment; median. In a few lines:
as §1

Data set [4] relates to SUDHL5. The data set can be described thus: Anti-proliferative effect (CellTiter-Glo, 72 h), SUDHL5. The format is cell-based. The settings on record: SUDHL5 cells, antiproliferation, median, read-out: Antiproli SUDHL5 [M] (median). In short, it runs like this:
(§2)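 Anti-proliferative activity is derived from ATP-based luminescence (CellTiter-Glo) in cells exposed to compound for 72 h at 37 °C, set against a time zero plate read at seeding.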
A general note: In ATP-based viability assays light output follows the ATP content of the culture.

For data set [5], the system named is SUDHL10. The experiment in a line: Anti-proliferative effect (CellTiter-Glo, 72 h), SUDHL10. To be noted: SUDHL10 cells, antiproliferation, 72 h incubation, median, read-out: Antiproli SUDHL10 [M] (median). Type of data set: cell-based. In short, it runs like this: as §2
The test system of the next data set is A2780. The data set can be described thus: Anti-proliferative effect (CellTiter-Glo, 72 h), A2780. Type of data set: cell-based. To be noted: A2780 cells, median, read-out: IC50 antiproliferation assay A2780 [M] (median). In short, it runs like this:
as §2

For another data set, the system named is MV-4-11. The data set can be described thus: Anti-proliferative effect (CellTiter-Glo, 72 h), MV-4-11. Type of data set: cell-based. The settings on record: MV-4-11 cells, median, read-out: IC50 antiproliferation assay MV-4-11 [M] (median). In a few lines:
as §2

In data set [6] the test system is SUDHL5.
The subject of data set [7] is SUDHL10.
A further data set has as its system OPM2. The experiment in a line: Anti-proliferative effect (CellTiter-Glo, 72 h), OPM2. Type of data set: cell-based. The settings on record: OPM2 cells, median, read-out: IC50 antiproliferation assay OPM2 [M] (median). In short, it runs like this: as §2

Read-outs that look alike come from different tables or passages of the source.

Data on ten compounds can be found in patent US10981932B2, “Macrocyclic indole derivatives” (Bayer Aktiengesellschaft, priority 2016, dated 2021).

By EC50 is commonly meant the midpoint of the concentration-response curve. Lower therefore signals an effect from little substance.

MCL-1, sequence (Q07820 whole entry): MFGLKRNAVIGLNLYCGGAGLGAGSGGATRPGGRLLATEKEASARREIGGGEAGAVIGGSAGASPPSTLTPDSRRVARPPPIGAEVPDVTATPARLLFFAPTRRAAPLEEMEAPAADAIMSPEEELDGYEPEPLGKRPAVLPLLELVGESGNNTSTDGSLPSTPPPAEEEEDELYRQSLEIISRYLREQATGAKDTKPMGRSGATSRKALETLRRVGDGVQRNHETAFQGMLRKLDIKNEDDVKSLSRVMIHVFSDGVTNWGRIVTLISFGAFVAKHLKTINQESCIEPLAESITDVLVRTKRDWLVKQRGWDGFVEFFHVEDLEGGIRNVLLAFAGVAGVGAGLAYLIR

Compound `CCOC(=O)c1[nH]c2c(-c3c(CC)nn(C)c3CO)c(C)ccc2c1CCCO[Si](C)(C)C(C)(C)C` returned a ring closure, isolated yield in [1] (the molecule shown is the open-chain precursor, crosslinker bond, (2Z)-1,4-dichlorobut-2-ene/NaH, DMF, 65.1 mM) of 68.9%.
In data set [1] (the molecule shown is the open-chain precursor, crosslinker bond, (2Z)-1,4-dichlorobut-2-ene/NaH, DMF, 65.6 mM), `CCOC(=O)c1[nH]c2c(-c3c(CO)nn(C)c3CC)cccc2c1CCCO[Si](C)(C)C(C)(C)C` came in with a ring closure, isolated yield of 75.3%.
Consider `CCOC(=O)c1[nH]c2c(-c3c(CO)nn(CCN4CCOCC4)c3C)c(C)ccc2c1CCCO[Si](C)(C)C(C)(C)C`, for which the ring closure, isolated yield in [1] (the molecule shown is the open-chain precursor, crosslinker bond, (2Z)-1,4-dichlorobut-2-ene/NaH, DMF, 65.7 mM) was determined as 48.3%.
In the case of `CCc1c2c(nn1C)COCCCCn1c(C(=O)O)c(CCCOc3cccc4cc(F)ccc34)c3cccc-2c31` (racemic) [Example 281, (rac)-3-ethyl-7-{3-[(6-fluoronaphthalen-1-yl)oxy]propyl}-2-methyl-2,10,11,12,13,15-hexahydropyrazolo[4′,3′:9,10][1,6]oxazacycloundecino[8,7,6-hi]indole-8-carboxylic Acid], the IC50 against MCL-1 was determined as 1.63 nM; in the data set on SUDHL5 [4] (72 h incubation), 2.48e-06 M; in the data set on SUDHL10 [5], 6.99e-06 M; with A2780, 1.39e-05 M; in the data set with MV-4-11, 4.74e-06 M; with SUDHL5 [6], 1.85 µM. For the same compound, the IC50 in the data set with SUDHL10 [7] was 2.58 µM. Besides, the half-maximal effective concentration (EC50) is 1.45 µM on SUDHL5 [2] and 2.78 µM on SUDHL10 [3].
In the case of `CCc1nn(C)c2c1-c1cccc3c(CCCOc4cccc5cc(C(F)(F)F)ccc45)c(C(=O)O)n(c13)CCCCOC2` (racemic) [Example 313, (rac)-12-ethyl-10-methyl-1-(3-((6-(trifluoromethyl)naphthalen-1-yl)oxy)propyl)-4,5,6,7,9,10-hexahydropyrazolo[4′,3′:9,10][1,6]oxaazacycloundecino[8,7,6-hi]indole-2-carboxylic Acid], the IC50 against MCL-1 came out at 99.9 nM; in the data set with SUDHL5 [4] (72 h) it was 7.48e-06 M; with A2780, 1.05e-05 M; with MV-4-11, 2e-05 M; with SUDHL5 [6] it was 30.9 µM; in the data set on SUDHL10 [7], 27.1 µM. In addition, the EC50 at SUDHL5 [2] and at SUDHL10 [3] was over 33 µM each time.
Take `CN1CCCn2c(C(=O)O)c(CCCOc3cccc4ccccc34)c3cccc(c32)-c2c(CCN3CCOCC3)nn(C)c2C1` (single isomer, unassigned; enantiomer 1) [Example 125, 7,9-dimethyl-11-[2-(morpholin-4-yl)ethyl]-1-[3-(naphthalen-1-yloxy)propyl]-4,5,6,7,8,9-hexahydropyrazolo[3′,4′:7,8][1,5]diazecino[9,10,1-hi]indole-2-carboxylic Acid (Enantiomer 1)]: the IC50 was 10.8 nM at MCL-1; 2.53e-06 M in the data set on SUDHL5 [4] (72 h incubation); 7.66e-06 M with SUDHL10 [5]; 1.15e-05 M in the data set on OPM2; 8.42e-06 M in the data set on A2780; 2.02e-06 M in the data set on MV-4-11. In addition, the IC50 worked out at 6.3 µM with SUDHL5 [6] and 13.9 µM with SUDHL10 [7]. Further, the results for the EC50 on SUDHL5 [2] and at SUDHL10 [3] were 6.2 µM and 14 µM, respectively.
Turning to `Cn1nc(CN2CCOCC2)c2c1COCCCn1c(C(=O)O)c(CCCOc3cccc4ccccc34)c3cccc-2c31` (single isomer, unassigned; enantiomer 1) [Example 139, 9-methyl-11-(morpholin-4-ylmethyl)-1-[3-(naphthalen-1-yloxy)propyl]-5,6,8,9-tetrahydro-4H-pyrazolo[4′,3′:8,9][1,5]oxazecino[7,6,5-hi]indole-2-carboxylic Acid (Enantiomer 1)], the IC50 at MCL-1 was 42.2 nM; in the data set on SUDHL10 [5], 2.67e-05 M; with OPM2, over 3.3e-05 M; with A2780 it was over 3.3e-05 M; in the data set with SUDHL5 [6], over 33 µM; in the data set with SUDHL10 [7], over 33 µM. In addition, the EC50 on SUDHL5 [2] and on SUDHL10 [3] was over 33 µM each time.
Regarding `CN1CCCn2c(C(=O)O)c(CCCOc3cccc4ccccc34)c3cccc(c32)-c2c(CCN3CCOCC3)nn(C)c2C1` (single isomer, unassigned; enantiomer 2) [Example 126, 7,9-dimethyl-11-[2-(morpholin-4-yl)ethyl]-1-[3-(naphthalen-1-yloxy)propyl]-4,5,6,7,8,9-hexahydropyrazolo[3′,4′:7,8][1,5]diazecino[9,10,1-hi]indole-2-carboxylic Acid (Enantiomer 2)], the IC50 at MCL-1 was 84.5 nM; with SUDHL5 [4] (72 h incubation), 1.68e-05 M; in the data set on SUDHL10 [5] it was 1.51e-05 M; with OPM2, over 3.3e-05 M; with A2780 it was 3.19e-05 M; in the data set with SUDHL5 [6] it was 27.3 µM. Besides, in the data set on SUDHL10 [7], the IC50 was over 33 µM. The half-maximal effective concentration (EC50) is 27.9 µM on SUDHL5 [2] and over 33 µM at SUDHL10 [3].
In [1] (rcm bond, Grubbs II (10 mol%), DCM, 77.0 mM), “(rac)-(E/Z)-ethyl-1,3-dimethyl-7-[3-(naphthalen-1-yloxy)propyl]-1,10,13,15-tetrahydropyrazolo[4′,3′:9,10][1,6]oxazacycloundecino[8,7,6-hi]indole-8-carboxylate” gave a ring closure, isolated yield of 57%.
Compound “(rac)-(E/Z)-ethyl-2,3-dimethyl-7-[3-(naphthalen-1-yloxy)propyl]-2,10,13,15-tetrahydropyrazolo[4′,3′:9,10][1,6]oxazacycloundecino[8,7,6-hi]indole-8-carboxylate” returned a ring closure, isolated yield in data set [1] (rcm bond, Grubbs II (10 mol%), DCM, 77.8 mM) of 15%.
